In PubChem BioAssay (NCI) one finds TGI data, which are given here for seven molecules.

Common to all, as to experiment: NCI-60 cell line screen, 48 h
Assay [1] relates to A498 renal.
Assay [2] has as its system ACHN renal.
The test system of assay [3] is CCRF-CEM leukemia.
For assay [4], the system named is COLO 205 colon.
For assay [5], the system named is DU-145 prostate.
For assay [6], the system named is EKVX NSCLC.
Assay [7] relates to HL-60(TB) leukemia.
The subject of assay [8] is HT29 colon.
Assay [9] has as its system LOX IMVI melanoma.
The test system of assay [10] is M14 melanoma.
The test system of assay [11] is MCF7 breast.
Assay [12] relates to MDA-MB-231 breast.
Assay [13] has as its system NCI-H522 lung.
In assay [14] the test system is OVCAR-4 ovarian.
In assay [15] the test system is RPMI-8226 leukemia.
The test system of assay [16] is SK-MEL-2 melanoma.
In assay [17] the test system is SK-MEL-5 melanoma.
The test system of assay [18] is SN12C renal.
Assay [19] relates to SNB-75 CNS.
Assay [20] concerns UACC-257 melanoma.

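Growth conditions: 96-well plates. Treatment: test compound, 48 hours, 5 concentrations. Analysis: linear interpolation between bracketing concentrations; unreached endpoints set to highest concentration. Definition used: TGI = concentration required for complete inhibition of growth.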

With `CC(C)(C)C1=CC(=C2C=Cc3cc(O)ccc3O2)C=C(C(C)(C)C)C1=O`, the TGI was 2.85 µM in assay [1]; 3.06 µM in assay [2]; 3.45 µM in [3]; 3.25 µM in assay [4]; 3.03 µM in assay [5]; 3.5 µM in assay [6]. The TGI is 3.15 µM in assay [7]; 3.59 µM in [8]; 3.03 µM in assay [9]; 3.29 µM in assay [10]; 3.02 µM in [11]; 3.18 µM in assay [12]. The TGI is 2.99 µM in [13]; 3.04 µM in assay [14]; 4.21 µM in assay [15]; 3.09 µM in assay [16]; 2.94 µM in [17]; 3.02 µM in assay [18]. Moreover, the TGI in assay [19] came out at 3.3 µM; in assay [20] it was 3.07 µM.
In the case of `Cc1nc2c(O)c3c(c(O)c2nc1C)C1C=CC3CC1`, the TGI in assay [1] is 81.5 µM; in assay [2] it was 28.5 µM; in assay [3] it was 3.53 µM; in [4], 38.4 µM; in assay [5] it was over 100 µM; in assay [6], 24.6 µM. The TGI in [7] was 2.66 µM; in [8], 55.9 µM; in [9], 9.95 µM; in assay [10] it was 29.4 µM; in assay [11] it was 25.4 µM; in assay [12] it was 10.1 µM. In addition, the TGI in [13] is 37.5 µM; in assay [14] it was 6.22 µM; in [15], 15.4 µM; in assay [16] it was 33 µM; in assay [17] it was 27.7 µM; in assay [18], 27.4 µM. Further, the TGI in assay [19] was over 92.6 µM; in [20], 18.2 µM.
Consider `O=C1C=C(NCC(c2ccccc2)c2ccccc2)C(=O)c2ncccc21`, for which the TGI in assay [1] worked out at 9.69 µM; in assay [2], 13.4 µM; in assay [3] it was 9.7 µM; in assay [4] it was 24.4 µM; in assay [5], 4.74 µM; in assay [6], 7.83 µM. In addition, the TGI was found to be 3.32 µM in assay [7]; 25.8 µM in assay [8]; 5.23 µM in assay [9]; 3.25 µM in assay [10]; 3.33 µM in assay [11]; 11.5 µM in assay [12]. Also, the TGI in assay [13] stood at 3.57 µM; in assay [14], 7.29 µM; in [15] it was 5.84 µM; in assay [16] it was 9.13 µM; in [17], 1.62 µM; in assay [18], 5.16 µM. Also, the TGI in [19] was found to be 2.77 µM; in assay [20], 2.45 µM.
In the case of `Cc1ccc(C(C)C)c(OCC(=O)N/N=C/c2c[nH]c3ccc(Br)cc23)c1`, the TGI in assay [1] worked out at 15.5 µM; in [2] it was 16.5 µM; in assay [3] it was 7 µM; in assay [4], 3.55 µM; in assay [5], 8.06 µM; in [6], 11.1 µM. Moreover, the TGI in assay [7] turned out to be 7.42 µM; in [8] it was 4.78 µM; in [9], 16.4 µM; in assay [10], 4.63 µM; in assay [11] it was 11.2 µM; in assay [12] it was 9.89 µM. Besides, the TGI in [13] amounted to 8.17 µM; in assay [14], 13.6 µM; in assay [15], 7.32 µM; in assay [16], 7.22 µM; in assay [17], 4.43 µM; in [18], 13 µM. Further, the TGI in [19] is 5.95 µM; in [20], 15.9 µM.
Take `COc1ccc(-c2c(-c3ccccc3)c(C)nc3[nH]c(=S)[nH]c(=S)c23)cc1OC`: the TGI in [1] is over 100 µM; in assay [2], over 100 µM; in [3] it was 72.5 µM; in [4] it was 72.1 µM; in [5] it was over 100 µM; in [6], over 100 µM. For the same molecule, the TGI in assay [7], in assay [8], in [9], in assay [10], in [11] and in assay [12] was over 100 µM throughout. The TGI is 85.8 µM in assay [13]; over 100 µM in [14]; over 100 µM in assay [15]; 48.1 µM in assay [16]; over 100 µM in assay [17]; 83.3 µM in assay [18]. Also, the TGI in assay [19] and in assay [20] was over 100 µM in each case.
For the molecule `CC(=O)c1c2c(cc3c1CC1(Cc4cc5c(cc4C1)C(=O)CCC5)C3)CCCC2` (stereo not given), the TGI in assay [1] is 8.95 µM; in assay [2], 17.2 µM; in assay [3], 5.01 µM; in [4], 21.7 µM; in assay [5], over 100 µM; in [6], over 87.2 µM. Also, the TGI was 4.17 µM in [7]; over 32.7 µM in [8]; over 53.5 µM in assay [9]; over 100 µM in [10]; 18.7 µM in assay [11]; 55.1 µM in assay [12]. The TGI was 31.4 µM in [13]; over 100 µM in [14]; 13.2 µM in [15]; 7.76 µM in [16]; 7.38 µM in assay [17]; over 100 µM in [18]. Moreover, the TGI was over 26.1 µM in [19] and 15.4 µM in assay [20].
Regarding `CCO[C@@]12CCC3CC4CC[C@@](OCC)(O1)C4C32` (stereo not given in full), the TGI in [1], in assay [2], in assay [3], in [4], in assay [5] and in assay [6] was over 100 µM each time. Moreover, the TGI in assay [7], in assay [8], in [9], in assay [10], in assay [11] and in assay [12] was over 100 µM in each case. Besides, the TGI in [13], in [14], in assay [15], in assay [16], in assay [17] and in [18] was over 100 µM in each case. In addition, the TGI in assay [19] and in [20] was over 100 µM throughout.
